Laboratory results published in PMC7587356, “High-Throughput Screening for Inhibitors of the SARS-CoV-2 Protease Using a FRET-Biosensor” (Molecules, 2020).
Where a name gives a salt, the structure may show the parent alone. Read-outs that look alike come from different tables or passages of the source.

Target: SARS-CoV-2 3CLpro (Severe acute respiratory syndrome coronavirus 2, UniProt P0DTD1)
Test: biochemical
Assay type: biochemical
Set-up: Replicate_1 / Replicate_2 / mean / mean (LOPAC_screen_w_protease): unit not given here
Details: for inhibition at 5 µM: 4 h
[1] = sheet LOPAC_screen_w_protease, primary screen at 5 µM, mean of two replicates
[2] = sheet LOPAC_screen_w_protease, primary screen at 5 µM, replicate 1
[3] = sheet LOPAC_screen_w_protease, primary screen at 5 µM, replicate 2
[4] = sheet LOPAC_screen_w_protease, primary screen with protease, mean of two replicates, read-out: mean
[5] = sheet LOPAC_screen_w_protease, primary screen with protease, replicate 1, read-out: Replicate_1
[6] = sheet LOPAC_screen_w_protease, primary screen with protease, replicate 2, read-out: Replicate_2
[7] = sheet LOPAC_screen_w_protease, primary screen with protease, compound at 5 µM, mean of two replicates
[8] = sheet LOPAC_screen_w_protease, primary screen with protease, compound at 5 µM, replicate 1
[9] = sheet LOPAC_screen_w_protease, primary screen with protease, compound at 5 µM, replicate 2
[10] = LOPAC1280 primary screen with protease, 5 µM compound, mean of two replicates
[11] = sheet LOPAC_screen_w_protease, LOPAC1280 primary screen at 5 µM, with protease, mean of the two replicates, read-out: mean
[12] = sheet LOPAC_screen_w_protease, LOPAC1280 primary screen at 5 µM, with protease, replicate 1, read-out: Replicate_1
[13] = sheet LOPAC_screen_w_protease, LOPAC1280 primary screen at 5 µM, with protease, replicate 2, read-out: Replicate_2
[14] = LOPAC1280 primary screen with protease, 5 µM compound, replicate 1
[15] = LOPAC1280 primary screen with protease, 5 µM compound, replicate 2
[16] = sheet LOPAC_screen_w_protease, primary screen of LOPAC1280 at 5 µM with protease, mean of the two replicates
[17] = sheet LOPAC_screen_w_protease, primary screen of LOPAC1280 at 5 µM with protease, replicate 1
[18] = sheet LOPAC_screen_w_protease, primary screen of LOPAC1280 at 5 µM with protease, replicate 2
[19] = sheet LOPAC_screen_w_protease, primary screen of LOPAC1280 at 5 µM with protease, mean of the two replicates, read-out: mean
[20] = sheet LOPAC_screen_w_protease, primary screen of LOPAC1280 at 5 µM with protease, replicate 1, read-out: Replicate_1
[21] = sheet LOPAC_screen_w_protease, primary screen of LOPAC1280 at 5 µM with protease, replicate 2, read-out: Replicate_2
[22] = sheet LOPAC_screen_w_protease, LOPAC1280 primary screen at 5 µM, with protease, mean of the two replicates
[23] = sheet LOPAC_screen_w_protease, LOPAC1280 primary screen at 5 µM, with protease, replicate 1
[24] = sheet LOPAC_screen_w_protease, LOPAC1280 primary screen at 5 µM, with protease, replicate 2

## CN(C)CCCN1c2ccccc2Sc2ccc(Cl)cc21 [Chlorpromazine hydrochloride]
read-out: Replicate_1
  inhibition at 5 µM: 0.794%
read-out: Replicate_2
  inhibition at 5 µM: 0.374%
read-out: mean
  inhibition at 5 µM: 0.584%

## CCCCNc1ccc(C(=O)OCCN(C)C)cc1 [Tetracaine hydrochloride]
Sheet LOPAC_screen_w_protease, primary screen with protease, 5 µM, mean of two replicates, read-out: mean
  inhibition at 5 µM: -0.191%
Sheet LOPAC_screen_w_protease, primary screen with protease, 5 µM, replicate 1, read-out: Replicate_1
  inhibition at 5 µM: 0.225%
Sheet LOPAC_screen_w_protease, primary screen with protease, 5 µM, replicate 2, read-out: Replicate_2
  inhibition at 5 µM: -0.607%

## CC(Cc1ccc(O)c(O)c1)C(C)Cc1ccc(O)c(O)c1 (stereo not drawn)
[1]
  mean (LOPAC screen with protease): 97.9088
[2]
  Replicate_1 (LOPAC screen with protease): 97.7665
[3]
  Replicate_2 (LOPAC screen with protease): 98.0511

## O=C1CCc2cc(OCCCCc3nnnn3C3CCCCC3)ccc2N1 [Cilostazol]
[4]
  inhibition at 5 µM: 2.16%
[5]
  inhibition at 5 µM: 1.9%
[6]
  inhibition at 5 µM: 2.42%

## CNC(=O)[C@H]1O[C@@H](n2cnc3c(NCc4cccc(I)c4)ncnc32)[C@H](O)[C@@H]1O [IB-MECA]
[4]
  inhibition at 5 µM: 2.39%
[5]
  inhibition at 5 µM: 2.72%
[6]
  inhibition at 5 µM: 2.06%

## Cc1cccc(C)c1OCC(N)C(C)C.I (stereo not drawn) [R(-)-Me5]
[1]
  mean (LOPAC screen with protease): 9.695
[2]
  Replicate_1 (LOPAC screen with protease): 9.8488
[3]
  Replicate_2 (LOPAC screen with protease): 9.541

## CCCCCCCCCCCCCCCCCC(=O)NCC(COP(=O)([O-])OCC[N+](C)(C)C)OCC (racemic)
[7]
  mean: 3.086
[8]
  Replicate_1: 5.031
[9]
  Replicate_2: 1.141

## Cl.NC[C@@H]1O[C@H](C23CC4CC(CC(C4)C2)C3)Cc2c1ccc(O)c2O [A-77636 hydrochloride]
[1]
  mean (LOPAC screen with protease): 61.6634
[2]
  Replicate_1 (LOPAC screen with protease): 62.3885
[3]
  Replicate_2 (LOPAC screen with protease): 60.9383

## NC(=O)c1cc(N2CC2)c([N+](=O)[O-])cc1[N+](=O)[O-] [CB 1954]
LOPAC1280 primary screen with protease, 5 µM compound, replicate 1, read-out: Replicate_1 (LOPAC_screen_w_protease)
  inhibition at 5 µM: 0.308%
LOPAC1280 primary screen with protease, 5 µM compound, replicate 2, read-out: Replicate_2 (LOPAC_screen_w_protease)
  inhibition at 5 µM: 3.06%
[10]
  mean (LOPAC_screen_w_protease): 1.686

## CCCn1c(=O)c2[nH]c(-c3ccc(S(=O)(=O)O)cc3)nc2n(CCC)c1=O [1,3-Dipropyl-8-p-sulfophenylxanthine]
[1]
  mean (LOPAC screen with protease): 7.8949
[2]
  Replicate_1 (LOPAC screen with protease): 7.582
[3]
  Replicate_2 (LOPAC screen with protease): 8.208

## CNCCC(Oc1ccc(C(F)(F)F)cc1)c1ccccc1 (stereo not drawn) [Fluoxetine hydrochloride]
[11]
  inhibition at 5 µM: 0.474%
[12]
  inhibition at 5 µM: 2.07%
[13]
  inhibition at 5 µM: -1.12%

## N[C@@H](Cc1c[nH]c2ccccc12)C(=O)O [L-Tryptophan]
[11]
  inhibition at 5 µM: 0.58%
[12]
  inhibition at 5 µM: 2.12%
[13]
  inhibition at 5 µM: -0.955%

## NCC1(CC(=O)O)CCCCC1 [Gabapentin]
  mean (LOPAC_screen_w_protease): 1.9821
read-out: Replicate_1 (LOPAC_screen_w_protease)
  inhibition at 5 µM: 3.94%
read-out: Replicate_2 (LOPAC_screen_w_protease)
  inhibition at 5 µM: 0.0248%

## NC(=S)c1ccc[n+]([C@@H]2O[C@@H](COP(=O)([O-])OP(=O)(O)OC[C@H]3O[C@@H](n4cnc5c(N)ncnc54)C(OP(=O)([O-])O)[C@H]3O)C(O)C2O)c1.[Na+] (stereo partly drawn) [Thio-NADP sodium]
[10]
  mean (LOPAC_screen_w_protease): 1.323
[14]
  Replicate_1 (LOPAC_screen_w_protease): 2.439
[15]
  Replicate_2 (LOPAC_screen_w_protease): 0.2062

## CC(=O)N[C@@H](CS)C(=O)O [N-Acetyl-L-Cysteine]
read-out: Replicate_1
  inhibition at 5 µM: 0.481%
read-out: Replicate_2
  inhibition at 5 µM: 0.723%
read-out: mean
  inhibition at 5 µM: 0.602%

## CC(COc1ccc(/C=C/c2ccccc2)cc1)[N+](C)(C)C.[I-] (stereo not drawn)
Sheet LOPAC_screen_w_protease, LOPAC1280 primary screen with protease, 5 µM compound, mean of the two replicates
  mean: 5.814
Sheet LOPAC_screen_w_protease, LOPAC1280 primary screen with protease, 5 µM compound, replicate 1
  Replicate_1: 7.703
Sheet LOPAC_screen_w_protease, LOPAC1280 primary screen with protease, 5 µM compound, replicate 2
  Replicate_2: 3.926

## CCCCCCCC/C=C\CCCCCCCC(=O)NCCO [N-Oleoylethanolamine]
[16]
  mean: 3.1732
[17]
  Replicate_1: 4.947
[18]
  Replicate_2: 1.4

## COC(=O)C1=C(C)NC(C)=C([N+](=O)[O-])C1c1ccccc1C(F)(F)F (racemic) [(±)-Bay K 8644]
[7]
  mean: 3.088
[8]
  Replicate_1: 2.534
[9]
  Replicate_2: 3.642

## COCCOC(=O)C1=C(C)NC(C)=C(C(=O)OC(C)C)C1c1cccc([N+](=O)[O-])c1 (stereo not drawn) [Nimodipine]
Sheet LOPAC_screen_w_protease, LOPAC1280 primary screen with protease, 5 µM compound, mean of the two replicates, read-out: mean
  inhibition at 5 µM: 4.81%
Sheet LOPAC_screen_w_protease, LOPAC1280 primary screen with protease, 5 µM compound, replicate 1, read-out: Replicate_1
  inhibition at 5 µM: 3.58%
Sheet LOPAC_screen_w_protease, LOPAC1280 primary screen with protease, 5 µM compound, replicate 2, read-out: Replicate_2
  inhibition at 5 µM: 6.04%

## CNC(=O)[C@H]1O[C@@H](n2cnc3c(NCc4cccc(I)c4)nc(Cl)nc32)[C@H](O)[C@@H]1O [Chloro-IB-MECA]
[19]
  inhibition at 5 µM: 3.22%
[20]
  inhibition at 5 µM: 4.25%
[21]
  inhibition at 5 µM: 2.19%

## N#C/C(=C\c1ccc(O)c(O)c1)C(=O)Nc1ccccc1 [Tyrphostin AG 494]
[19]
  inhibition at 5 µM: 4.07%
[20]
  inhibition at 5 µM: 4.44%
[21]
  inhibition at 5 µM: 3.69%

## CCc1c(C(=O)OC)ncc2[nH]c3cc(OC)c(OC)cc3c12
LOPAC1280 primary screen with protease, 5 µM compound, mean of the two replicates
  mean (LOPAC_screen_w_protease): 2.118
[14]
  Replicate_1 (LOPAC_screen_w_protease): 4.217
[15]
  Replicate_2 (LOPAC_screen_w_protease): 0.01945

## L-Methionine sulfoximine
  Replicate_1 (LOPAC_screen_w_protease): 2.433
  Replicate_2 (LOPAC_screen_w_protease): 0.2989
  mean (LOPAC_screen_w_protease): 1.366

## Cn1cnc2c(NC3CCCC3)ncnc21 [N6-Cyclopentyl-9-methyladenine]
[16]
  mean: 3.328
[17]
  Replicate_1: 3.176
[18]
  Replicate_2: 3.4795

## CN(C)CCC(c1ccc(Br)cc1)c1ccccn1.O=C(O)/C=C\C(=O)O (racemic) [(±)-Brompheniramine maleate]
[7]
  mean: 2.6339
[8]
  Replicate_1: 2.5605
[9]
  Replicate_2: 2.707

## Nn1nnc2ccccc21 [1-Aminobenzotriazole]
Sheet LOPAC_screen_w_protease, LOPAC1280 at 5 µM, mean of two replicates
  mean: 1.253
Sheet LOPAC_screen_w_protease, LOPAC1280 at 5 µM, replicate 1
  Replicate_1: 1.647
Sheet LOPAC_screen_w_protease, LOPAC1280 at 5 µM, replicate 2
  Replicate_2: 0.8595

## Phenylbenzene-omega-phosphono-alpha-amino acid
[22]
  mean: 0.7227
[23]
  Replicate_1: 0.6047
[24]
  Replicate_2: 0.8406

## C[C@]12CCC(=O)C=C1CC[C@@H]1[C@@H]2CC[C@@]2(C)[C@H]1CC[C@]2(O)C(=O)CO [Cortexolone]
Sheet LOPAC_screen_w_protease, LOPAC1280 at 5 µM, mean of two replicates, read-out: mean
  inhibition at 5 µM: 1.01%
Sheet LOPAC_screen_w_protease, LOPAC1280 at 5 µM, replicate 1, read-out: Replicate_1
  inhibition at 5 µM: 2.17%
Sheet LOPAC_screen_w_protease, LOPAC1280 at 5 µM, replicate 2, read-out: Replicate_2
  inhibition at 5 µM: -0.141%

## Nc1ncnc2c1c(-c1ccc(Oc3ccccc3)cc1)cn2C1CCCC1
[22]
  mean: 0.6123
[23]
  Replicate_1: 0.3054
[24]
  Replicate_2: 0.9192

## CCOC(=O)Nc1ccc(NCc2ccc(F)cc2)nc1N [Flupirtine maleate]
Sheet LOPAC_screen_w_protease, primary screen at 5 µM, mean of two replicates, read-out: mean (LOPAC screen with protease)
  inhibition at 5 µM: 10.9%
Sheet LOPAC_screen_w_protease, primary screen at 5 µM, replicate 1, read-out: Replicate_1 (LOPAC screen with protease)
  inhibition at 5 µM: 11.1%
Sheet LOPAC_screen_w_protease, primary screen at 5 µM, replicate 2, read-out: Replicate_2 (LOPAC screen with protease)
  inhibition at 5 µM: 10.6%

## C#C[C@]1(O)CC[C@H]2[C@@H]3CCC4=Cc5nc6nc7ccccc7n6cc5C[C@]4(C)[C@H]3CC[C@@]21C [WIN 62,577]
  Replicate_1: -0.8505
  Replicate_2: 3.428
  mean: 1.289

## C[N+](C)(CCCCCC[N+](C)(C)CCCN1C(=O)c2cccc3cccc(c23)C1=O)CCCN1C(=O)c2cccc3cccc(c23)C1=O.[Br-].[Br-] [WB 64]
[22]
  mean: 0.6302
[23]
  Replicate_1: 0.2165
[24]
  Replicate_2: 1.044

## COc1ccc2c(c1)c(CC(=O)O)c(C)n2Cc1ccc(F)cc1
Sheet LOPAC_screen_w_protease, primary screen with protease, mean of two replicates
  mean: 2.348
Sheet LOPAC_screen_w_protease, primary screen with protease, replicate 1
  Replicate_1: 3.38
Sheet LOPAC_screen_w_protease, primary screen with protease, replicate 2
  Replicate_2: 1.3165

## O=C(CCNNC(=O)c1ccncc1)NCc1ccccc1 [Nialamide]
[19]
  inhibition at 5 µM: 3.19%
[20]
  inhibition at 5 µM: 4.27%
[21]
  inhibition at 5 µM: 2.12%
